Source: US8933230B2, “Phosphorus-containing group-substituted quinoline, its preparation process, medical composition containing the compounds and application” (priority 2011, dated 2015)

Tests used:
[1] = tested on: GTL-16 human gastric cancer cells; experiment: Anti-tumor experiment, GTL-16 xenograft in nude mice; assay type: in vivo, BALB/c-nu/nu mice; details: after 14 days, 50 mg/kg qd p.o.
Text: Anti-tumor experiments: in this example, N1-[4-[[7-[3-(diethoxyphosphorylmethylamino)propoxyl]-6-methoxyl-4-quinolyl]oxyl]-3-fluorophenyl]-N1′-(4-fluorophenyl)cyclopropane-1,1-dicarboxamide obtained from Example 3 is used in the anti-tumor experiments in nude mice animal model of xenograft GTL-16 human gastric cancer cells, the methods and results are as follows:
7-8 weeks old SPF level female BALB/c-nu/nu mice with 16-20 g of body weights are purchased from Experimental Animal Center of Guangdong Province, inspection certificate number: NO:0072659. GTL-16 gastric cancer cells are purchased from the Cell Source Center of Shanghai Institutes for Biological Sciences. RPM 1-1640 cell culture medium, fetal calf serum (FBS) and digestive juice of trypsin are from Gibco Corporation. All the antibiotics are purchased from Sigma Company.
(§1) Firstly culturing the GTL-16 gastric cancer cells: GTL-16 cell line is inoculated in RPM 1-1640 culture solution containing 10% FBS, 100 U/ml penicillin, 100 U/ml streptomycin, and cultured at 37° C., 5% CO2, 100% humidity in a carbon dioxide cell incubator, the cells enter into logarithmic growth phase after 24 hours, after 48 hours of inoculation, the cells grow to cover the bottom of the culture bottle. […]

[2] = Body weight of GTL-16 tumor-bearing nude mice under treatment; assay type: in vivo, BALB/c-nu/nu mice; details: after treating for 14 days, 50 mg/kg qd p.o.
Procedure: as §1, with “bottle. Then the GTL-16 cells covering 80% bottom of the culture bottle are digested, 5 minutes after centrifuging at 1000 r/min, the cells are diluted to 2×10^7/ml and implanted subcutaneously in the right anterior axillary fossa with 0.1 ml per mouse.” for “bottle.”

Q: What does the source list for `CCOP(=O)(CNCCCOc1cc2nccc(Oc3ccc(NC(=O)C4(C(=O)Nc5ccc(F)cc5)CC4)cc3F)c2cc1OC)OCC` [Example 3, N1-[4-[[7-[3-(diethoxyphosphorylmethylamino)propoxyl]-6-methoxyl-4-quinolyl]oxyl]-3-fluorophenyl]-N1′-(4-fluorophenyl)cyclopropane-1,1-dicarboxamide]?
A: Tumor Growth Inhibition (TGI) [1]: 85%; average tumor volume ([1]; mean±SD, n=8): 57.1±61.2 mm^3; body weight change [2]: < 5%
